Experimental findings from US9249453B2, “Method for identifying a malodor inhibitor” (Kao Corporation, priority 2011, dated 2016) are described below.

“Also recorded” adds a separate entry of the source. A value given as a limit tells only on which side of the number the result lay.

What all share (type): cell-based
Assay [1] deals with T1, OR2W1 (Homo sapiens, UniProt Q9Y3N9).
T1 construct: expressed in transfected cells; host or cells: HEK293
T1 sequence (Q9Y3N9 1-320): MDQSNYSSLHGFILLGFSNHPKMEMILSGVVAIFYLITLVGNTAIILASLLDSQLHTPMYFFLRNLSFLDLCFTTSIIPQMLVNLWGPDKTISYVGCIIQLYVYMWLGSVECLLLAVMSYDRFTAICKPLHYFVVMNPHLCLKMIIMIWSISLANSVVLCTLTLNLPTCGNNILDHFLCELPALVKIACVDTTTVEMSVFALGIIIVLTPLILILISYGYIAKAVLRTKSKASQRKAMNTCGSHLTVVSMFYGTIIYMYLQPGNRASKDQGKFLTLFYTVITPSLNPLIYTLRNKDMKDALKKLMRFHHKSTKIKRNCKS
In words: Luciferase reporter assay: odorant response of OR2W1 expressed in HEK293 cells. As to conditions: for response of olfactory receptor at different concentration: 0, 3, 10, 30, 100, 300, and 1000 μM odorant, OR2W1, FIG. 2/3. How it is done: (§1) Each of the 369 types of human olfactory receptors was expressed in HEK293 cells. A reaction solution having a composition shown in Table 1 was prepared on a clean bench, and left to stand for 15 minutes. The solution was dispensed to each well of a 96-well plate (BD). Subsequently, HEK293 cells (100 μL, 3×10^5 cells/cm^2) were seeded in each well and cultured for 24 hours in an incubator at 37° C. and under 5% CO2 conditions.
(§2) The olfactory receptor expressed in HEK293 cells activates adenylate cyclase with the aid of Gαs present in cells, to thereby increase intracellular cAMP level. In this study, odorant response was measured by a luciferase reporter gene assay which monitored the intracellular cAMP level as the luminescence value derived from a firefly luciferase gene (fluc2P-CRE-hygro). Also, a Renilla luciferase gene fused downstream of a CMV promoter (hRluc-CMV) was also transfected to HEK293 cells as an internal standard to correct errors in gene transfer efficiency and number of cells.
(§3) The culture medium was removed from the culture plate produced in (3) above, and a solution (75 μL) containing an odorant substance (1 mM skatole) in CD293 medium (Invitrogen) was added to each well. […] Luciferase activity was measured by means of a Dual-Glo™ luciferase assay system (promega) according to an instruction manual thereof. The luminescence value derived from firefly luciferase induced by odorant stimulation was divided by the luminescence value of cells which were not stimulated with odorants. […]
(§4) In a manner similar to that employed in Example 1, each of olfactory receptor OR2W1 (SEQ ID NO: 2), OR5K1 (SEQ ID NO: 4), OR5P3 (SEQ ID NO: 6), and OR8H1 (SEQ ID NO: 8) was expressed with RTP1S mutant (SEQ ID NO: 12) in HEK293 cells. The response of each receptor to skatole (0, 3, 10, 30, 100, 300, and 1000 μM) was determined.
(§5) In a manner similar to that employed in Example 2, the response of each olfactory receptor to skatole and indole (each 0, 3, 10, 30, 100, 300, and 1000 μM) was determined.
For orientation: In a reporter assay the amount or activity of a reporter protein is the signal.

Assay [2] has as its target T2, OR5K1 (Homo sapiens, UniProt Q8NHB7).
T2 construct: expressed in transfected cells; host or cells: HEK293
T2 sequence (Q8NHB7 1-308): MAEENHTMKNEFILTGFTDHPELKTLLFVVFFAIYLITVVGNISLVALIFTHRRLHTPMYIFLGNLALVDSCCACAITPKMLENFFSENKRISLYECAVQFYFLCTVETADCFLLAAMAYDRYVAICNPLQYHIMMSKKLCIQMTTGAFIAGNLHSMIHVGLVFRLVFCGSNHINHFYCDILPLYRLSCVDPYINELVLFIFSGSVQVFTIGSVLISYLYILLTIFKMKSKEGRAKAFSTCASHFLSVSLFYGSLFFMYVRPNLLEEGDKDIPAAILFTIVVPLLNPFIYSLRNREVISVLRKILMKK
Put plainly: Luciferase reporter assay: odorant response of OR5K1 expressed in HEK293 cells. As to conditions: for response of olfactory receptor at different concentration: 0, 3, 10, 30, 100, 300, and 1000 μM odorant, OR5K1, FIG. 2/3. How it is done:
as §1, §2, §3, §4, §5

Assay [3] concerns the target T3, OR5P3 (Homo sapiens, UniProt Q8WZ94).
T3 construct: expressed in transfected cells; host or cells: HEK293
T3 sequence (Q8WZ94 1-311): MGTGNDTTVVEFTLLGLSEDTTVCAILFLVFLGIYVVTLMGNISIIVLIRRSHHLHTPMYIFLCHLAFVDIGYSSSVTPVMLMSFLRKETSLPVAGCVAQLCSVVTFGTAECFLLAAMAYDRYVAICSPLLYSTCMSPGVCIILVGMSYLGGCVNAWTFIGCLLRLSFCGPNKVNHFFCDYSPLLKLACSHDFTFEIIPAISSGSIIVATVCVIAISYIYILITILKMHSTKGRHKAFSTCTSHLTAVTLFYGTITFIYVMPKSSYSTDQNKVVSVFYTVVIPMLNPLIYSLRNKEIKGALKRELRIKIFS
In words: Luciferase reporter assay: odorant response of OR5P3 expressed in HEK293 cells. Conditions: for response of olfactory receptor at different concentration: 0, 3, 10, 30, 100, 300, and 1000 μM odorant, OR5P3, FIG. 2/3. Here is the method:
as §1, §2, §3, §4, §5

Assay [4] concerns the target T4, OR8H1 (Homo sapiens, UniProt Q8NGG4).
T4 construct: expressed in transfected cells; host or cells: HEK293
T4 sequence (Q8NGG4 1-311): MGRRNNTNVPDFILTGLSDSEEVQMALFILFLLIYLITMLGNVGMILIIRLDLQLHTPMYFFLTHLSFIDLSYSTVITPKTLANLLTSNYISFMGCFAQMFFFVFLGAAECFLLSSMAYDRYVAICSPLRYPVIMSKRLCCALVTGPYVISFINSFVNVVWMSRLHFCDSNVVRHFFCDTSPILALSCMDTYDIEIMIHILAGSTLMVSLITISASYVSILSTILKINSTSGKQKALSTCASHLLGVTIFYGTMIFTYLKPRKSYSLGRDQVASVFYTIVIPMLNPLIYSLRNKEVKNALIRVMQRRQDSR
In words: Luciferase reporter assay: odorant response of OR8H1 expressed in HEK293 cells. As to conditions: for response of olfactory receptor at different concentration: 0, 3, 10, 30, 100, 300, and 1000 μM odorant, OR8H1, FIG. 2/3. Here is the method:
as §1, §2, §3, §4, §5

The target in assay [5] is T1, OR2W1. Put plainly: Luciferase reporter assay: suppression of the skatole response of OR2W1 expressed in HEK293 cells. As to conditions: 4 h; test substance 100 μM mixed with 300 μM skatole, HEK293 cells expressing OR2W1; read-out: Inhibition rate 2W1. How it is done:
(§6) A reaction solution having a composition shown in Table 1 was prepared on a clean bench, and left to stand for 15 minutes. The solution was dispensed to each well of a 96-well plate (BD). Subsequently, HEK293 cells (100 μL, 3×10^5 cells/cm^2) were seeded in each well and cultured for 24 hours in an incubator at 37° C. and under 5% CO2 conditions.
as §2
(§7) Cell culturing was performed for four hours in a CO2-incubator, whereby the luciferase gene sufficiently expressed in the cells. Luciferase activity was measured by means of a Dual-Glo™ luciferase assay system (promega) according to an instruction manual thereof. The luminescence value derived from firefly luciferase induced by odorant stimulation was divided by the luminescence value of cells which were not stimulated with odorants. The thus-obtained—called “fold increase”—was employed as an index for response intensity.
(§8) The response inhibition rate of a test substance was calculated as follows. Firstly, luminescence value derived from firefly luciferase induced by stimulation with skatole (X), and luminescence value in cells which expressed the same receptor but were not stimulated with skatole (Y) were determined. By subtracting Y from X, the receptor activity by stimulation with skatole alone (X−Y) was determined. Similarly, the luminescence value induced by stimulation with a mixture of skatole and a test substance (Z) was determined. Through subtracting Y (the luminescence value in cells which expressed the same receptor but were not stimulated with skatole) from Z, the receptor activity (Z−Y) by stimulation with a mixture of skatole and the test substance was obtained. From the thus-obtained receptor activity by stimulation with skatole alone (X−Y) and the receptor activity in the presence of a test material (Z−Y), the response inhibition rate of the test substance was calculated by the following equation: Inhibition rate (%)={1−(Z−Y)/(X−Y)}×100.
(§9) In each case, multiple independent experiments were performed in duplicate, and the average of each experiment was used.

Assay [6] addresses T2, OR5K1. Put plainly: Luciferase reporter assay: suppression of the skatole response of OR5K1 expressed in HEK293 cells. As to conditions: 4 h; test substance 100 μM mixed with 300 μM skatole, HEK293 cells expressing OR5K1; read-out: Inhibition rate 5K1. Here is the method: as §6, §2, §7, §8, §9
The target in assay [7] is T3, OR5P3. In words: Luciferase reporter assay: suppression of the skatole response of OR5P3 expressed in HEK293 cells. As to conditions: test substance 100 μM mixed with 300 μM skatole, HEK293 cells expressing OR5P3. Here is the method:
as §6, §2, §7, §8, §9

Assay [8] concerns the target T4, OR8H1. In words: Luciferase reporter assay: suppression of the skatole response of OR8H1 expressed in HEK293 cells. As to conditions: 4 h; test substance 100 μM mixed with 300 μM skatole, HEK293 cells expressing OR8H1; read-out: Inhibition rate 8H1. How it is done: as §6, §2, §7, §8, §9

Consider `Cc1c[nH]c2ccccc12` [skatole], for which the “response of olfactory receptor at different concentration” value on OR2W1 [1], at OR5K1 [2], on OR5P3 [3] and on OR8H1 [4] was “dose-dependent response; also recorded: exhibited a response” throughout. The “response of olfactory receptor (fold increase)” value at OR2W1 [1] (1 mM odorant, OR2W1, FIG. 1) is recorded as “exhibited response”; on OR5K1 [2] (1 mM odorant, OR5K1, FIG. 1), “exhibited response”; at OR5P3 [3] (1 mM odorant, OR5P3, FIG. 1) it was “exhibited response”; on OR8H1 [4] (1 mM odorant, OR8H1, FIG. 1) it was “exhibited response”.

For orientation: inhibition means how much of the control response was suppressed. Regarding `CC1=CCC(C=CC(C)C(C)O)C1(C)C` (centres unmarked) [Ebanol, 3-Methyl-5-(2,2,3-trimethyl-3-cyclopenten-1-yl)-4-penten-2-ol], the values for the inhibition at 100 µM on OR2W1 [5], on OR5K1 [6] and at OR8H1 [8] were 50 to 80%, > 80% and 50 to 80%, respectively. In addition, the “Inhibition rate 5P3” value on OR5P3 [7] is “A (A >80%)”.

With `CC(CCO)CCc1ccccc1` (centres unmarked) [phenylhexanol, 3-Methyl-5-phenyl-1-pentanol], the inhibition at 100 µM at OR2W1 [5], at OR5K1 [6] and at OR8H1 [8] was < 20% throughout. Further, the “Inhibition rate 5P3” value on OR5P3 [7] was “A (A >80%)”.

Consider `c1ccc2[nH]ccc2c1` [indole], for which the “response of olfactory receptor at different concentration” value on OR2W1 [1], on OR5K1 [2], on OR5P3 [3] and on OR8H1 [4] was “exhibited a response” throughout.

For `CC1(C)CCCC2=C1CC(C=O)CC2` (centres unmarked) [Cyclemone A, 1,2,3,4,5,6,7,8-octahydro-8,8-dimethyl-2-naphthaldehyde], the inhibition at 100 µM lay in the range of 50 to 80% on OR2W1 [5], 20 to 50% at OR5K1 [6] and 20 to 50% on OR8H1 [8]. At OR5P3 [7], the “Inhibition rate 5P3” value is “C (C >20%)”.

Consider `CC(C)=CCCC(C)CC=O` (centres unmarked) [citronellal, 3,7-Dimethyl-6-octenal], for which the figures for the inhibition at 100 µM at OR2W1 [5], at OR5K1 [6] and at OR8H1 [8] were 20 to 50%, 20 to 50% and < 20%, respectively. On OR5P3 [7], the “Inhibition rate 5P3” value is given as “C (C >20%)”.

Regarding `CC(C)(C)C1CCC(O)CC1` (centres unmarked) [p-tert-butlcyclohexanol, 4-(1,1-Dimethylethyl)-cyclohexanol], the inhibition at 100 µM at OR2W1 [5] was < 20%; on OR5K1 [6], > 80%; at OR8H1 [8] it was > 80%. Moreover, the “Inhibition rate 5P3” value at OR5P3 [7] is “A (A >80%)”.
